Biological target: T1, human TLR8 (hTLR8) (Homo sapiens, UniProt Q9NR97)
T1 construct: expressed in transfected cells
T1 sequence (Q9NR97 27-1041): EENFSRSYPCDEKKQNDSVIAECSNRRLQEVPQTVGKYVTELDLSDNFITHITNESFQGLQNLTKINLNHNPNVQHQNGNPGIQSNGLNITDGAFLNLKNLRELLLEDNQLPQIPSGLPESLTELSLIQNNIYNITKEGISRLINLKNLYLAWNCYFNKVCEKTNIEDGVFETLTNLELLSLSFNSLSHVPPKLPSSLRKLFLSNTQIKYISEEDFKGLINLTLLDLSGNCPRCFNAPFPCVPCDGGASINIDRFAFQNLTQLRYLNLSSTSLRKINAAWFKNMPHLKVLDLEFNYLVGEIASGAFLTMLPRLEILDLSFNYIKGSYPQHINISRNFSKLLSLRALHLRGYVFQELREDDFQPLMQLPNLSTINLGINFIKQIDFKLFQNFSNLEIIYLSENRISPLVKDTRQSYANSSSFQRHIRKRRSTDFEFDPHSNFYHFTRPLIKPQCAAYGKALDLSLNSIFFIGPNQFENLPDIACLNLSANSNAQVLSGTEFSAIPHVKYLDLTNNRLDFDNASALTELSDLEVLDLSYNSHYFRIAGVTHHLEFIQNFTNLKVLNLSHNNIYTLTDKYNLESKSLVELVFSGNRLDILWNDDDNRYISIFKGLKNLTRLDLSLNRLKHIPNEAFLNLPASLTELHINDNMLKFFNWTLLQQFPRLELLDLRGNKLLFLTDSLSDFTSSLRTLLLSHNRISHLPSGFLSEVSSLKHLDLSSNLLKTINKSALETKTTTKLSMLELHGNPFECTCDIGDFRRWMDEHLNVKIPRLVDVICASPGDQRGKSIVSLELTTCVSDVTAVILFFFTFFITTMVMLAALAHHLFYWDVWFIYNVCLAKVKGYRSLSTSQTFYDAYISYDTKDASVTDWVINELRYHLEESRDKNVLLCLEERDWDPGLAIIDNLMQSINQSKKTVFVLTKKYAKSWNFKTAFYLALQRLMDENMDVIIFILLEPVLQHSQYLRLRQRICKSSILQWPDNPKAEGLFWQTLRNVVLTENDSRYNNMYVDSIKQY
Assay: Antagonist screen, hTLR8-NFκB-293 cells, NF-κB-luciferase reporter, with EC50 of R848
Assay type: cell-based
Details: compound at 0.5, 5, 50 μg/ml; EC50 concentration of R848; 16 h; NF-κB-luciferase
Experimental: The method is described in greater detail as follows. The cells for each individual cell clone (hTLR3-NFκB-293, hTLR7-NFκB-293, hTLR8-NFκB-293 and hTLR9-NFκB-293) were counted and seeded one day before the stimulation at 1.5×10^4 cells per well in 96-well cell culture plates. To become adherent the cells were incubated after seeding overnight at 37° C. in 5% CO2 humidified air.
The screen for each compound was performed at the same time for all of the receptors TLR3, TLR7, TLR8 and TLR9. Up to fifteen test compounds, each assayed in duplicate at each of three different final concentrations (0.5 μg/ml, 5 μg/ml, and 50 μg/ml), were used for 16 h cell stimulation on a single multiwell culture plate. A 4× final concentration master plate was created to prepare the different test compounds before they were added to the cells.
Controls were added as duplicates individually for each cell clone on the cell culture plate. Positive controls were used as follows (final concentrations): 50 μg/ml poly(I:C) for hTLR3-NFκB-293; 8 μM resiquimod (R848) for hTLR7-NFκB-293; 30 μM R848 for hTLR8-NFκB-293; and 2.5 μM CpG-ODN 2006 for hTLR9-NFκB-293. Media alone was used as negative control. After addition of controls and small molecules, the cell clones were additionally stimulated with the EC50 concentration of the appropriate receptor-specific ligand.
The mean value of wells H2 and H5 (each with cells and EC50 concentration of the appropriate receptor-specific ligand) divided by the mean of wells H3 and H6 (each with cells alone) yielded the baseline response (i.e., fold induction of luciferase activity) to EC50 concentration of the appropriate receptor-specific ligand.
After 16 h stimulation the supernatant was removed and the cells treated with lysis buffer and stored at −80° C. before measuring.
For each screen result a graphical documentation was performed.
The baseline result (measured with addition of the EC50 concentration of the receptor-specific ligand) for each cell culture plate was measured as described above. Antagonistic effects were measured by down regulation compared to the baseline. Antagonists were scored as follows: • 13: compounds for which there was clear down regulation at 0.5 μg/ml, 5 μg/ml, and 50 μg/ml; • 12: compounds for which there was clear down regulation at 5 μg/ml and 50 μg/ml; • 11: compounds for which there was clear down regulation only at 50 μg/ml; • —: compounds for which there was no clear down regulation even at 50 μg/ml. Agonists
Results were expressed as fold induction over baseline luciferase activity measured in the absence of R848. […] Additional screening was performed in like manner using additional small molecules selected from another library or specifically prepared for this purpose. Scoring is reported as above but as applied to TLR8.

| Molecule | hTLR8 (inhibitory effect, antagonist score) |
| --- | --- |
| CN(C)CC/C=C1/c2ccccc2Sc2ccc(Cl)cc21.Cl [compound 348, Chlorprothixenehydrochloride] | 11 (compounds for which there was clear down regulation only at 50 μg/ml) |
| OCCN1CCN(CCCN2c3ccccc3Sc3ccc(Cl)cc32)CC1 [compound 125, Perphenazine] | 11 (compounds for which there was clear down regulation only at 50 μg/ml) |
| CC(=O)Oc1cc(C)c(C2(c3cc(C(C)C)c(OC(C)=O)cc3C)OC(=O)c3ccccc32)cc1C(C)C [compound 1161] | 12 (compounds for which there was clear down regulation at 5 μg/ml and 50 μg/ml) |
| COC(=O)[C@H]1[C@H]2C[C@@H]3c4[nH]c5cc(OC)ccc5c4CCN3C[C@H]2C[C@@H](OC(=O)c2cc(OC)c(OC)c(OC)c2)[C@@H]1OC [compound 875, Reserpine] | — (compounds for which there was no clear down regulation even at 50 μg/ml) |
| Cl.Cl.OCCN1CCN(CC/C=C2/c3ccccc3Sc3ccc(C(F)(F)F)cc32)CC1 [compound 340, Flupentixoldihydrochloride cis-(Z)] | 11 (compounds for which there was clear down regulation only at 50 μg/ml) |
| CCOCCOC(=O)c1cc([N+](=O)[O-])cc2c1-c1c(cc([N+](=O)[O-])cc1[N+](=O)[O-])C2=C(C#N)C#N [compound 1241] | — (compounds for which there was no clear down regulation even at 50 μg/ml) |
| CCCCOC(=O)c1cc([N+](=O)[O-])cc2c1-c1cc(CO)c([NH+]([O-])O)cc1C2=C(C#N)C#N (centres unmarked) [compound 939] | — (compounds for which there was no clear down regulation even at 50 μg/ml) |
| Cl.Cl.Fc1ccc(C(OCCN2CCN(CCCc3ccccc3)CC2)c2ccc(F)cc2)cc1 [compound 386, GBR 12909hydrochloride] | 12 (compounds for which there was clear down regulation at 5 μg/ml and 50 μg/ml) |
| COC(=O)c1cccc(C(O)(c2ccccc2)c2ccccc2)c1S(=O)(=O)C(C)(C)C [compound 1187] | 11 (compounds for which there was clear down regulation only at 50 μg/ml) |
| O=C1c2ccccc2C(=O)c2c1ccc1c(=O)n(-c3ccccc3)[nH]c21 [compound 1042] | 13 (compounds for which there was clear down regulation at 0.5 μg/ml, 5 μg/ml, and 50 μg/ml) |
| CCCC(C(=O)OCCN(CC)CC)(c1ccccc1)c1ccccc1.Cl [compound 778, Proadifen hydrochloride] | 11 (compounds for which there was clear down regulation only at 50 μg/ml) |
| CN(CCO)C(=O)c1cccc2c1-c1ccccc1C2=O [compound 890] | 11 (compounds for which there was clear down regulation only at 50 μg/ml) |
| CN1Cc2c(N)cccc2C(c2ccccc2)C1.O=C(O)/C=C\C(=O)O (centres unmarked) [compound 108, Nomifensine maleate] | — (compounds for which there was no clear down regulation even at 50 μg/ml) |
| Flunarizinehydrochloride [compound 312] | — (compounds for which there was no clear down regulation even at 50 μg/ml) |
| O=C1c2c(O)cccc2Cc2cccc(O)c21 [compound 43, Anthralin] | 12 (compounds for which there was clear down regulation at 5 μg/ml and 50 μg/ml) |
| COC(=O)c1cccc2c1-c1ccccc1/C2=N/O [compound 904] | 13 (compounds for which there was clear down regulation at 0.5 μg/ml, 5 μg/ml, and 50 μg/ml) |

| Molecule | hTLR8 (inhibitory effect, antagonist score) |
| --- | --- |
| Nc1cccc2c1C(=O)c1cccc(N)c1C2=O [compound 413, Anthraquinone,1,5-diamino] | 11 (compounds for which there was clear down regulation only at 50 μg/ml) |
| O=C1Nc2ccccc2Oc2ccc([N+](=O)[O-])cc21 [compound 1352] | — (compounds for which there was no clear down regulation even at 50 μg/ml) |
| O=c1[nH]c2ccccc2n1C1CCN(CCCC(c2ccc(F)cc2)c2ccc(F)cc2)CC1 [compound 308, Pimozide] | 11 (compounds for which there was clear down regulation only at 50 μg/ml) |
| CN1CCN(C(c2ccccc2)c2ccccc2)CC1.Cl [compound 510, Cyclizine hydrochloride] | — (compounds for which there was no clear down regulation even at 50 μg/ml) |
| COc1ccc2c(c1)N(CC(C)CN(C)C)c1ccccc1S2.O=C(O)/C=C\C(=O)O (centres unmarked) [compound 797, Methotrimeprazinemaleat salt] | 11 (compounds for which there was clear down regulation only at 50 μg/ml) |
| Cc1cc(OC(=O)C2C3CCCCC32)c(C(C)C)cc1C1(c2cc(C(C)C)c(OC(=O)C3C4CCCCC43)cc2C)OC(=O)c2ccccc21 (centres unmarked) [compound 974] | 11 (compounds for which there was clear down regulation only at 50 μg/ml) |
| COc1ccc2[nH]c3c(c2c1)CCN=C3C [compound 621, Methoxy-6-harmalan] | — (compounds for which there was no clear down regulation even at 50 μg/ml) |
| c1ccc2c(c1)[nH]c1cnccc12 [compound 470, norharman] | 11 (compounds for which there was clear down regulation only at 50 μg/ml) |
| Maprotilinehydrochloride [compound 346] | 11 (compounds for which there was clear down regulation only at 50 μg/ml) |
| Prochlorperazinedimaleate [compound 399] | 11 (compounds for which there was clear down regulation only at 50 μg/ml) |
| CN(C)CCC=C1c2ccccc2CCc2ccccc21.Cl [compound 74, Amitryptilinehydrochloride] | — (compounds for which there was no clear down regulation even at 50 μg/ml) |
| CN(C)CCCN1c2ccccc2Sc2ccc(Cl)cc21.Cl [compound 64, Chlorpromazinehydrochloride] | 11 (compounds for which there was clear down regulation only at 50 μg/ml) |
| O=C(O)c1cc(C(c2ccc(O)c(C(=O)O)c2)C(Cl)(Cl)Cl)ccc1O [compound 884] | 11 (compounds for which there was clear down regulation only at 50 μg/ml) |
| CN1CCC2C(C1)c1ccccc1N2Cc1ccccc1 (centres unmarked) [compound 455, Mebhydroline 1,5 naphtalenedisulfonate] | — (compounds for which there was no clear down regulation even at 50 μg/ml) |
| Cc1nccc2c1[nH]c1cc(O)ccc12.Cl [compound 612, Harmol hydrochloride monohydrate] | 11 (compounds for which there was clear down regulation only at 50 μg/ml) |
| Cl.Clc1ccc(C(OCCN2CCCCC2)c2ccccc2)cc1 (centres unmarked) [compound 793, Cloperastinehydrochloride] | — (compounds for which there was no clear down regulation even at 50 μg/ml) |

— patent US7410975B2, “Small molecule toll-like receptor (TLR) antagonists” (Coley Pharmaceutical Group, Inc., priority 2003, dated 2008)
